Laboratory results as given in US10173983B2, “Fungicidal pyridylamidines” (Syngenta Participations AG, priority 2014, dated 2019).

Key:
Type in all cases: in vivo
[1] = test system: Puccinia recondita f. sp. tritici; experiment: Puccinia recondita f. sp. tritici / wheat / leaf disc preventative (brown rust); details: foliar, 168 h, wheat leaf segments cv. Kanzler, inoculated 1 day after application, assessed 7-9 days after application, compared to untreated, read-out: disease control
Protocol: Puccinia recondita f. sp. tritici/Wheat/Leaf Disc Preventative (Brown Rust) Wheat leaf segments cv. Kanzler were placed on agar in multiwell plates (24-well format) and sprayed with the formulated test compound diluted in water. The leaf disks were inoculated with a spore suspension of the fungus 1 day after application. The inoculated leaf segments were incubated at 19° C. and 75% rh under a light regime of 12 h light/12 h darkness in a climate cabinet and the activity of a compound was assessed as percent disease control compared to untreated when an appropriate level of disease damage appears in untreated check leaf segments (7-9 days after application). The following compounds gave at 200 ppm gave at least 80% disease control in this test when compared to untreated control leaf disks under the same conditions, which show extensive disease development: […]

[2] = test system: Puccinia recondita f. sp. tritici; experiment: Puccinia recondita f. sp. tritici / wheat / leaf disc curative (brown rust); details: foliar, wheat leaf segments cv. Kanzler, compound applied 1 day after inoculation, assessed 6-8 days after application, compared to untreated, read-out: disease control
Protocol: Puccinia recondita f. sp. tritici/Wheat/Leaf Disc Curative (Brown Rust) Wheat leaf segments cv. Kanzler are placed on agar in multiwell plates (24-well format). The leaf segments are inoculated with a spore suspension of the fungus. Plates were stored in darkness at 19° C. and 75% rh. The formulated test compound diluted in water was applied 1 day after inoculation. The leaf segments were incubated at 19° C. and 75% rh under a light regime of 12 h light/12 h darkness in a climate cabinet and the activity of a compound was assessed as percent disease control compared to untreated when an appropriate level of disease damage appears in untreated check leaf segments (6-8 days after application). The following compounds gave at 200 ppm gave at least 80% disease control in this test when compared to untreated control leaf disks under the same conditions, which show extensive disease development: […]

Phakopsora pachyrhizi = Phakopsora pachyrhizi on soybean, preventive treatment; details: 264 h, 1 day preventive, triazole tolerant soybean rust strain, evaluated 11 days after application, compared to untreated, read-out: disease control
Protocol: Phakopsora pachyrhizi on Soybean, Preventive Treatment
The compound activity was tested under 1 day preventive conditions. Soybean plants with a fully enfolded first trifoliate leaf were sprayed with a track sprayer and 50 l/ha spray volume with the test compounds, either solo or in tankmix as shown in the table below. 1 day after application leaf discs were cut from the first trifoliate leaf and placed in multiwell plates on water-agar. 5 leaf discs per treatment where infested with spores of a triazole tolerant soybean rust strain. The multiwell plates where sealed and placed in an incubator 48 h in darkness and 12 h light/dark cycle afterwards. Rust infestation on leaf discs was evaluated visually 11 days after application and average activity calculated in relation to disease severity on untreated check leaf discs.
The following compounds gave at 200 ppm gave at least 80% disease control in this test when compared to untreated control leaf disks under the same conditions, which show extensive disease development: […]

[3] = test system: Blumeria graminis f. Sp. tritici (Erysiphe graminis f. sp. tritici); experiment: Blumeria graminis f. sp. tritici / wheat / leaf disc preventative (powdery mildew on wheat); details: foliar, wheat leaf segments cv. Kanzler, inoculated 1 day after application, assessed 6-8 days after application, compared to untreated, read-out: disease control
Protocol: Blumeria graminis f. Sp. tritici (Erysiphe graminis f. sp. tritici)/Wheat/Leaf Disc Preventative (Powdery Mildew on Wheat) Wheat leaf segments cv. Kanzler were placed on agar in a multiwell plate (24-well format) and sprayed with the formulated test compound diluted in water. The leaf disks were inoculated by shaking powdery mildew infected plants above the test plates 1 day after application. The inoculated leaf disks were incubated at 20° C. and 60% rh under a light regime of 24 h darkness followed by 12 h light/12 h darkness in a climate chamber and the activity of a compound was assessed as percent disease control compared to untreated when an appropriate level of disease damage appears on untreated check leaf segments (6-8 days after application). The following compounds gave at 200 ppm give at least 80% disease control in this test when compared to untreated control leaf disks under the same conditions, which show extensive disease development: […]

Measured: pest or weed control at 200 ppm

CCCOCC(C)Oc1nc(C)c(/N=C/N(C)CC)cc1C#N (centres unmarked) [Q.007, N′-[5-cyano-2-methyl-6-(1-methyl-2-propoxy-ethoxy)-3-pyridyl]-N-ethyl-N-methyl-formamidine]
≥ 80%: all assays above

CCCOCC(C)Oc1nc(C)c(/N=C/N(C)CC)cc1Br (centres unmarked) [Q.013, N′-[5-bromo-2-methyl-6-(1-methyl-2-propoxy-ethoxy)-3-pyridyl]-N-ethyl-N-methyl-formamidine]
≥ 80%: all assays above

CCCOCC(C)Oc1nc(C)c(N=CN(C)CC)cc1C (centres unmarked) [Q.011, N′-[2,5-dimethyl-6-(1-methyl-2-propoxy-ethoxy)-3-pyridyl]-N-ethyl-N-methyl-formamidine]
≥ 80%: all assays above

CCN(C)C=Nc1cc(Cl)c(OC(C)COc2ccc(Cl)cc2)nc1C (centres unmarked) [Q.024, N′-[5-chloro-6-[2-(4-chlorophenoxy)-1-methyl-ethoxy]-2-methyl-3-pyridyl]-N-ethyl-N-methyl-formamidine]
≥ 80%: all assays above

CCN(C)C=Nc1cc(Cl)c(OC(C)COc2ccccc2)nc1C (centres unmarked) [Q.025, N′-[5-chloro-2-methyl-6-(1-methyl-2-phenoxy-ethoxy)-3-pyridyl]-N-ethyl-N-methyl-formamidine]
≥ 80%: all assays above
